Consider ten molecules from ChEMBL document CHEMBL1201862, “PubChem BioAssay data set” (2004).

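96-well plates; 48 h exposure; 5 concentrations. Endpoints by linear interpolation between flanking doses. Not reached: highest tested concentration assigned. At the GI50, growth is halved.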 Active and inactive are the calls of the source. Rule as the data show it: active = GI50 up to about 1.1 µM and inactive = higher. Where only a bound is given, the exact number is not on record here.

Some test systems named below: 786-0; BT-549; CAKI-1; CCRF-CEM; DU-145; EKVX; HCC 2998; HL-60; HOP-62; HT-29; MCF7; NCI-H460; OVCAR-3; RPMI-8226; SF-268; SF-295; SF-539; SK-MEL-28; SK-MEL-5; SK-OV-3.
Assay in all cases: NCI-60 cell line screen, 48 h

In the case of `C=C(C(=O)OC1C(CO)OC(OCC2CC[C@@H]3C[C@]4(OC(=O)C3=C)C(C)=CC(=O)C24)C(O)C1O)[C@@H]1CCC(CO)C2C(=O)C=C(C)[C@@]2(O)C1` (some centres undefined), the GI50 with 786-0 was 1.63 µM (inactive); in the assay on BT-549, 1.39 µM (inactive); in the assay on CAKI-1, 1.36 µM (inactive); with CCRF-CEM, 0.269 µM (active); in the assay on DU-145, 3.61 µM (inactive); in the assay with EKVX it was 2.42 µM (inactive). For the same molecule, the GI50 with HCC 2998 is 1.61 µM (inactive); with HL-60, 0.592 µM (active); in the assay on HOP-62, 9.4 µM (inactive); in the assay with HT-29, 1.73 µM (inactive); with MCF7, 1.16 µM (inactive); in the assay with NCI-H460, 3.3 µM (inactive). For the same molecule, the GI50 was 2.02 µM (inactive) with OVCAR-3; 0.356 µM (active) with RPMI-8226; 3.4 µM (inactive) with SF-268; 17.1 µM (inactive) in the assay with SF-295; 0.482 µM (active) in the assay with SF-539; 3.34 µM (inactive) in the assay on SK-MEL-28. For the same molecule, the figures for the GI50 with SK-MEL-5 and in the assay on SK-OV-3 were 1.29 µM (inactive) and 20.4 µM (inactive), respectively.
With `CN1C(=O)N(C)C2(CCN(CCCCCCF)CC2)C1=O`, the GI50 in the assay with 786-0 is > 100 µM (inactive); in the assay on BT-549, 23.3 µM (inactive); with CAKI-1 it was > 100 µM (inactive); in the assay on CCRF-CEM, > 100 µM (inactive); in the assay with DU-145 it was > 100 µM (inactive); with EKVX it was > 100 µM (inactive). Also, the GI50 in the assay with HCC 2998, in the assay on HL-60, with HOP-62, with HT-29, in the assay on MCF7 and with OVCAR-3 was > 100 µM (inactive) in each case. In addition, the GI50 in the assay with RPMI-8226, in the assay on SF-268, in the assay on SF-295, with SF-539, in the assay on SK-MEL-28 and in the assay on SK-MEL-5 was > 100 µM (inactive) in each case. Moreover, the GI50 in the assay on SK-OV-3 is > 100 µM (inactive).
With `CN(C)c1ccc(/N=N/c2ccccn2)cc1`, the GI50 is 49 µM (inactive) with 786-0; 81.3 µM (inactive) in the assay on BT-549; 32.2 µM (inactive) with CAKI-1; 4.17 µM (inactive) with CCRF-CEM; 48.6 µM (inactive) with DU-145; 11.9 µM (inactive) with EKVX. Further, the GI50 in the assay on HCC 2998 was 14.1 µM (inactive); with HL-60 it was 4.26 µM (inactive); with HOP-62, 71 µM (inactive); with HT-29, 11.1 µM (inactive); in the assay on MCF7, 3.18 µM (inactive); with NCI-H460 it was 28.8 µM (inactive). For the same molecule, the GI50 in the assay with OVCAR-3 was 4.21 µM (inactive); with RPMI-8226, 11.3 µM (inactive); in the assay with SF-268, 51.2 µM (inactive); with SF-295, 37 µM (inactive); with SF-539, 52.2 µM (inactive); with SK-MEL-28 it was > 100 µM (inactive). The results for the GI50 in the assay on SK-MEL-5 and in the assay on SK-OV-3 were 15.4 µM (inactive) and 38.7 µM (inactive), respectively.
As to `CNC(=O)Nc1nc2cc([N+](=O)[O-])ccc2[nH]1`, the GI50 in the assay on 786-0 is > 100 µM (inactive); in the assay on BT-549, 49.9 µM (inactive); in the assay on CAKI-1 it was 61.4 µM (inactive); in the assay on CCRF-CEM, 67.8 µM (inactive); in the assay with DU-145 it was > 100 µM (inactive); in the assay with EKVX, > 100 µM (inactive). For the same molecule, the GI50 with HCC 2998 is > 100 µM (inactive); in the assay with HL-60 it was 49 µM (inactive); in the assay on HOP-62, > 100 µM (inactive); in the assay with HT-29, > 100 µM (inactive); in the assay with MCF7, > 100 µM (inactive); in the assay on NCI-H460, 7.55 µM (inactive). Besides, the GI50 in the assay with OVCAR-3, in the assay with RPMI-8226, in the assay on SF-268, with SF-295, with SF-539 and in the assay on SK-MEL-28 was > 100 µM (inactive) in each case. The GI50 with SK-MEL-5 and with SK-OV-3 was > 100 µM (inactive) in each case.
As to `CC1CC(=O)N(N(C)C)C(C#N)(C#N)C1(C#N)C#N` (centres undefined), the GI50 was 12.2 µM (inactive) in the assay with 786-0; 15.7 µM (inactive) with BT-549; 2.3 µM (inactive) in the assay on CAKI-1; 0.638 µM (active) in the assay on CCRF-CEM; 18.2 µM (inactive) with DU-145; 23 µM (inactive) with EKVX. The GI50 in the assay on HCC 2998 was 18.5 µM (inactive); in the assay on HL-60, 0.653 µM (active); in the assay with HOP-62 it was 26.1 µM (inactive); in the assay on HT-29 it was 17.2 µM (inactive); in the assay on MCF7, 22.4 µM (inactive); in the assay with OVCAR-3 it was 20.5 µM (inactive). Also, the GI50 with RPMI-8226 was 4.14 µM (inactive); with SF-268, 35.8 µM (inactive); in the assay with SF-295, > 50.1 µM (inactive); with SF-539 it was 24.2 µM (inactive); in the assay with SK-MEL-28 it was 16.1 µM (inactive); in the assay on SK-MEL-5, 21.9 µM (inactive). In the assay with SK-OV-3, the GI50 is 29.5 µM (inactive).
`CCCCN1C(=O)CC2[C@@H]3CCc4cc(OC(C)=O)ccc4C3CC[C@]2(C)C1=O` (some centres undefined): the GI50 with 786-0, in the assay on BT-549, in the assay on CAKI-1, in the assay on CCRF-CEM, in the assay on DU-145 and in the assay with EKVX was > 10 µM (inactive) in each case. Besides, the GI50 was > 10 µM (inactive) in the assay with HCC 2998; 9.42 µM (inactive) in the assay on HL-60; > 10 µM (inactive) in the assay on HOP-62; > 10 µM (inactive) with HT-29; > 10 µM (inactive) in the assay on MCF7; > 10 µM (inactive) in the assay with NCI-H460. The GI50 in the assay on OVCAR-3, with RPMI-8226, with SF-268, in the assay on SF-295, with SF-539 and in the assay on SK-MEL-28 was > 10 µM (inactive) each time. Also, the GI50 in the assay on SK-MEL-5 and in the assay with SK-OV-3 was > 10 µM (inactive) each time.
With `O=C(CNc1ccccc1C(=O)O)Nn1cnc2ccc(S(=O)(=O)Nc3ccccc3C(=O)O)cc2c1=O`, the GI50 with 786-0, in the assay on BT-549, in the assay on CAKI-1, in the assay with CCRF-CEM, in the assay on DU-145 and in the assay on EKVX was > 100 µM (inactive) in each case. Also, the GI50 with HCC 2998, in the assay with HL-60, with HOP-62, in the assay with HT-29, with MCF7 and in the assay with NCI-H460 was > 100 µM (inactive) each time. For the same molecule, the GI50 with OVCAR-3, with RPMI-8226, with SF-268, in the assay with SF-295, in the assay with SF-539 and with SK-MEL-28 was > 100 µM (inactive) in each case. Also, the GI50 in the assay on SK-OV-3 was > 100 µM (inactive).
`CCOC(=O)/C(C#N)=C/c1ccc2c(-c3c(OCC)ccc4cc(/C=C(\C#N)C(=O)OCC)ccc34)c(OCC)ccc2c1`: the GI50 in the assay on 786-0, in the assay on BT-549, in the assay on CAKI-1, with CCRF-CEM, with DU-145 and in the assay with EKVX was > 100 µM (inactive) each time. Moreover, the GI50 in the assay with HCC 2998, with HL-60, in the assay with HOP-62, in the assay on HT-29, with MCF7 and in the assay on NCI-H460 was > 100 µM (inactive) in each case. Moreover, the GI50 in the assay with OVCAR-3, in the assay with RPMI-8226, with SF-268, in the assay with SF-295, in the assay with SK-MEL-28 and in the assay on SK-MEL-5 was > 100 µM (inactive) each time. The GI50 with SK-OV-3 was > 100 µM (inactive).
Consider `CCSc1nc(-c2cccs2)nc2ccc(I)cc12`, for which the GI50 in the assay with 786-0 was > 100 µM (inactive); with BT-549 it was > 100 µM (inactive); in the assay with CAKI-1 it was > 100 µM (inactive); in the assay with CCRF-CEM it was > 100 µM (inactive); with DU-145 it was > 100 µM (inactive); in the assay with EKVX it was 46.9 µM (inactive). For the same molecule, the GI50 with HCC 2998 was > 100 µM (inactive); in the assay with HL-60, > 100 µM (inactive); in the assay with HOP-62 it was > 100 µM (inactive); in the assay on HT-29, > 100 µM (inactive); with MCF7 it was 13.1 µM (inactive); in the assay with NCI-H460, > 100 µM (inactive). Besides, the GI50 in the assay with OVCAR-3 was 11.2 µM (inactive); in the assay on RPMI-8226, > 100 µM (inactive); in the assay with SF-268, > 100 µM (inactive); in the assay on SF-295 it was > 100 µM (inactive); in the assay on SF-539, > 100 µM (inactive); in the assay with SK-MEL-28, > 100 µM (inactive). In the assay on SK-MEL-5, the GI50 is > 100 µM (inactive).
As for `N[C@H](C(=O)O)[C@@H]1CC(Cl)=NO1` [ACIVICIN], the GI50 in the assay with 786-0 is 13.8 µM (inactive); in the assay with BT-549, 43 µM (inactive); with CAKI-1, 2.52 µM (inactive); with CCRF-CEM, 1.19 µM (inactive); with DU-145, 2.48 µM (inactive); in the assay with EKVX it was 2.54 µM (inactive). In addition, the GI50 was 8.99 µM (inactive) in the assay with HCC 2998; 3.44 µM (inactive) in the assay with HL-60; 1.42 µM (inactive) in the assay with HOP-62; 0.787 µM (active) in the assay with HT-29; 0.676 µM (active) in the assay with MCF7; 0.452 µM (active) in the assay on NCI-H460. Also, the GI50 was 2.17 µM (inactive) in the assay on OVCAR-3; 3.3 µM (inactive) in the assay on RPMI-8226; 1.53 µM (inactive) in the assay on SF-268; 3.56 µM (inactive) in the assay on SF-539; 4.4 µM (inactive) with SK-MEL-28; 1.99 µM (inactive) in the assay with SK-MEL-5. Moreover, the GI50 with SK-OV-3 is 12.6 µM (inactive).
